Measurements published in patent US8785494B2, “Calcium sensing receptor modulating compounds and pharmaceutical use thereof” (LEO-Pharma A/S, priority 2009, dated 2014).

Tests used:
[1] = Clearance in rat hepatocytes; assay type: in vitro ADME; conditions: test compound 0.5 μM, 1×10^6 cells/mL, scaled to rat body weight
Procedure: Test compound concentration is 0.5 μM and cell concentration is 1×10^6 cells/mL in the incubation. The described method is manual and is based on a 24-well format.
The liver is collected from a male Spraque-Dawley rat. One liver lobe is cut off and flushed with various buffers to loosen the cells. The cell suspension is washed and centrifuged, and the cell density is adjusted to 1.2×10^6 cells/mL with Krebs-Henseleit buffer, pH 7.4, containing 0.2% bovine serum albumin (BSA). Only cell suspensions with viability above 80% are used.
A volume of 315 μL cell suspension per well is added to 24-well plates and preincubated at 37° C. for 20 min. Test compound (0.5 μM) is added, and the mixture is incubated for 20 minutes. Incubations are run in duplicate. Samples are withdrawn at predetermined stop times and mixed with methanol containing internal standard (IS) to terminate all enzyme activity and precipitate proteins.
The percentage of organic solvent in the incubations is less than 1%. Careful inspections of reagents are performed prior to the start of any experiment to ensure all reagents are in solution.
The 24-well plates are centrifuged. Test compound depletion, using a compound specific LC/MS/MS method, is determined. The logarithm of the peak area ratios of test compound to internal standard (IS) versus incubation time is plotted in a graph
The rate constant (k) (min^−1) of test compound depletion is calculated from the linear part of the curve and the half-time (t1/2) in minutes can be calculated from the rate constant (Eq. 1). t1/2=(ln 2)/k (Eq. 1)
Intrinsic clearance (Clint) (mL/min/10^6 cells) is calculated from: Clint=k/c (Eq. 2) where c is the cell concentration in 10^6 cells/mL.
Conversion to apparent clearance (Clapp) (mL/min/kg) is done by Eq. 3: Clapp=Clint×a×b/d (Eq. 3) where a, b and d are the scaling factors for normalizing Clint to rat body weight.
The following rat scaling factors are used: • a: 120 (cells/liver weight (10^6 cells/g)) • b: 10 (liver weight (g)) • d: 0.25 (body weight (kg))
Apparent clearance is a measure of compound elimination from the liver. Apparent clearance below approximately 25 mL/min/kg rat body weight (corresponding to extraction ratio of approx. 30%) is considered as low clearance (high metabolic stability). Apparent clearance above approximately 165 mL/min/kg rat body weight (corresponding to extraction ratio of approx. 75%) is considered as high clearance (low metabolic stability).

[2] = molecular target: T1, human CaSR (Homo sapiens, UniProt P41180); test: Functional whole cell assay (IP1 accumulation, IP-One htrf) in CHO-K1 cells stably expressing human CaSR; assay type: cell-based; conditions: 2 mM Ca2+, 1 hour at 37° C., IP1 readout, read-out: Functional whole cell assay (modulation of human CaSR)
T1 construct: The ORF coding for the human CaSR (genebank: NM_000388) was acquired from Invitrogen Corp, USA
T1 sequence (P41180 20-1078): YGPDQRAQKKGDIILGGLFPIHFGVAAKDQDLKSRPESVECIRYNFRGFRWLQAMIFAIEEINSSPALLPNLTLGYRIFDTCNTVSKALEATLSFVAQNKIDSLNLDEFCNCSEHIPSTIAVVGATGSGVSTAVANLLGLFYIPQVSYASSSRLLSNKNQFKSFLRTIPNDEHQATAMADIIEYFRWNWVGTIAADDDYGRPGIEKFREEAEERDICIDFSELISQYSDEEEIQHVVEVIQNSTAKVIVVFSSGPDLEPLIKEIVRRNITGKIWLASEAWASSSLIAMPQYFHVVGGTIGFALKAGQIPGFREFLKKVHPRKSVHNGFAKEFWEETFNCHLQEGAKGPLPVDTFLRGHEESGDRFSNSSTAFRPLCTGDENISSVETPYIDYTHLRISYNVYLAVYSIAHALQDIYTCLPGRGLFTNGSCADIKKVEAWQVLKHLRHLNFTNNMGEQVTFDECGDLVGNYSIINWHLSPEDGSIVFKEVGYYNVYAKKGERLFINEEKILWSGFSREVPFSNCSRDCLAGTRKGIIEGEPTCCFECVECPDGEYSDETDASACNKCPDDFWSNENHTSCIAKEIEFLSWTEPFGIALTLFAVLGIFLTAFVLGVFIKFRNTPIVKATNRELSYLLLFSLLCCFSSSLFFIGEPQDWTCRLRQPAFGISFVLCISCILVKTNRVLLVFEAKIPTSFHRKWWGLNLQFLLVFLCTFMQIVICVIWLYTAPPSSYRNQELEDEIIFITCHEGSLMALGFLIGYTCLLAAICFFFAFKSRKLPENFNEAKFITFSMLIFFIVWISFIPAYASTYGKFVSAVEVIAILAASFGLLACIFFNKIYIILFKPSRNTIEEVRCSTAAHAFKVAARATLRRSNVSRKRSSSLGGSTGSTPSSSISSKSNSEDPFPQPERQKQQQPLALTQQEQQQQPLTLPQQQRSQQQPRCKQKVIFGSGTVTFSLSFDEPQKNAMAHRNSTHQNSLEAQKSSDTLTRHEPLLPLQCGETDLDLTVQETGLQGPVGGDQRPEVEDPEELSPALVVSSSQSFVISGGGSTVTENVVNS
From the text: The assay investigates a compound's functional ability to act as a biological positive modulator on the human CaSR. Activation of the receptor expressed on CHO-K1 cells is detected through the G alpha q pathway, the activation of phospholipase C and the accumulation of intracellular inositol phosphate (IP) as described earlier [Sandrine Ferry, Bruno Chatel, Robert H. Dodd, Christine Lair, Danielle Gully, Jean-Pierre Maffrand, and Martial Ruat. Effects of Divalent Cations and of a Calcimimetic on Adrenocorticotropic Hormone Release in Pituitary Tumor Cells. BIOCHEMICAL AND BIOPHYSICAL RESEARCH COMMUNICATIONS 238, 866-873 (1997)]. The human CaSR is stably expressed on a CHO-K1 cell clone, stimulated with a basal level of calcium and challenged with the tested compound. The level of IP1 is determined using the IP-One htrf kit (Cisbio, France). CHO-K1 cells not transfected with the CaSR fail to elicit an IP1 response upon calcium and/or compound stimulation.
The ORF coding for the human CaSR (genebank: NM_000388) was acquired from Invitrogen Corp, USA and subsequently cloned into the mammalian expression vector pCDA3.1.
CHO-K1 cells were transfected using Lipofectamine according to manufacturer's protocol (400.000 cells/well were seeded in a 6-well plate and transfected after 24 hours using 2 μg DNA and 5 μl lipofectamine). After another 24 hours the cells were detached, seeded and subjected to 1 mg/ml of G-418. Following 7 days growth single clones were picked, the CaSR expression evaluated using the 5C10 antibody against CaSR, the clones with the highest expression were selected and tested for functional response. The preferred clone was continuously cultured according to standard procedures described in ATCC (American Type Culture Collection) protocols for CHO-K1 with the addition of 500 μg/ml G-418.
On the assay day cells were harvested and resuspended to 13*10^6 cells/ml in stimulation buffer (containing: Hepes 10 mM, MgCl2 0.5 mM, KCl 4.2 mM, NaCl 146 mM, glucose 5.5 mM, LiCl 50 mM at pH 7.4). Five μl cell solution were pipetted into a well (white 384-well plate, Perkin Elmer Optiplate) followed by 5 μl compound diluted in a Ca^2+-containing (to the final concentration of 2 mM) buffer. After compound stimulation for 1 hour at 37° C. 10 μl of IP-One assay reagents were added and incubated for another 1 hour at room temperature. Finally the plate was read using a Perkin Elmer EnVision, according to protocol supplied by the IP-One assay kit manufacturer. The FRET ratio was calculated by dividing the 665 nm emission signal with that of the 615 nm.

Compound	EC50 [2]	Clearance (Clapp) in rat hepatocytes [1]
COc1cc([C@@H](C)NC2CC[C@H](c3ccc(CCC(=O)O)c(C(F)(F)F)c3)C2)ccc1F (single isomer, unassigned) [Compound 1012]	< 500 nM	A (A: <30 mL/min/kg)
C[C@@H](NC1CCC(c2ccc(CCC(=O)O)c(C(F)(F)F)c2)C1)c1cccc2ccccc12 (single isomer, unassigned) [Compound 1007]	< 500 nM	B (B: 30-55 mL/min/kg)

The next lines start with results.

EC50 [2]	Compound	Clearance (Clapp) in rat hepatocytes [1]
< 500 nM	COc1cc([C@@H](C)NC2CC[C@H](c3ccc(OCC(=O)O)c(C(F)(F)F)c3)C2)ccc1F (mixture of isomers) [Compound 1021, 2-[4-[(1S)-3-[[(1R)-1-(4-fluoro-3-methoxy-phenyl)ethyl]amino]cyclopentyl]-2-(trifluoromethyl)phenoxy]acetic acid]	A (A: <30 mL/min/kg)
< 500 nM	COc1cc([C@@H](C)NC2CC[C@@H](c3cc(OCC(=O)O)cc(C(F)(F)F)c3)C2)ccc1F (single isomer, unassigned) [Compound 1022]	A (A: <30 mL/min/kg)
< 500 nM	C[C@@H](NC1CC[C@@H](c2cc(OCC(=O)O)cc(C(F)(F)F)c2)C1)c1cccc2ccccc12 (single isomer, unassigned) [Compound 1023]	B (B: 30-55 mL/min/kg)
